PubChem BioAssay AID1963429 (Molecular Pharmacology Branch, DTP, NCI, 2024)

Tested on: 126254-015-R-J1-PDC complex spheroid growth, % test/control
Assay: Anticancer human tumor 126254-015-R-J1-PDC patient-derived soft tissue sarcoma cell line growth inhibition [Asc]
Conditions: for IC50: curve of first compound; for viability, T/C: stronger effect = lower value
Procedure, shortened: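 Tumor cells were grown as complex spheroids with human endothelial cells (HUVEC) and human mesenchymal stem cells as stroma. Agents were tested alone and in combination, in half-log steps down from the clinical Cmax, or from 10 microM where Cmax was unknown.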

[1] = second compound 0.03 µM, first compound 0.0316 µM
[2] = second compound 0.03 µM, first compound 0.1 µM
[3] = second compound 0.03 µM, first compound 0.316 µM
[4] = second compound 0.03 µM, first compound 1 µM
[5] = second compound 0.03 µM, first compound 3.16 µM
[6] = second compound 0.03 µM, first compound 10 µM
[7] = second compound 0.0949 µM, first compound 0.0316 µM
[8] = second compound 0.0949 µM, first compound 0.1 µM
[9] = second compound 0.0949 µM, first compound 0.316 µM
[10] = second compound 0.0949 µM, first compound 1 µM
[11] = second compound 0.0949 µM, first compound 3.16 µM
[12] = second compound 0.0949 µM, first compound 10 µM
[13] = second compound 0.3 µM, first compound 0.0316 µM
[14] = second compound 0.3 µM, first compound 0.1 µM
[15] = second compound 0.3 µM, first compound 0.316 µM
[16] = second compound 0.3 µM, first compound 1 µM
[17] = second compound 0.3 µM, first compound 3.16 µM
[18] = second compound 0.3 µM, first compound 10 µM
[19] = second compound 0.949 µM, first compound 0.0316 µM
[20] = second compound 0.949 µM, first compound 0.1 µM
[21] = second compound 0.949 µM, first compound 0.316 µM
[22] = second compound 0.949 µM, first compound 1 µM
[23] = second compound 0.949 µM, first compound 3.16 µM
[24] = second compound 0.949 µM, first compound 10 µM
[25] = second compound 3 µM, first compound 0.0316 µM
[26] = second compound 3 µM, first compound 0.1 µM
[27] = second compound 3 µM, first compound 0.316 µM
[28] = second compound 3 µM, first compound 1 µM
[29] = second compound 3 µM, first compound 3.16 µM
[30] = second compound 3 µM, first compound 10 µM
[31] = second compound 0.03 µM, first compound 0.00316 µM
[32] = second compound 0.03 µM, first compound 0.01 µM
[33] = second compound 0.0949 µM, first compound 0.00316 µM
[34] = second compound 0.0949 µM, first compound 0.01 µM
[35] = second compound 0.3 µM, first compound 0.00316 µM
[36] = second compound 0.3 µM, first compound 0.01 µM
[37] = second compound 0.949 µM, first compound 0.00316 µM
[38] = second compound 0.949 µM, first compound 0.01 µM
[39] = second compound 3 µM, first compound 0.00316 µM
[40] = second compound 3 µM, first compound 0.01 µM
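Also: spheroids exposed to compound for seven days.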
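For viability, T/C in this document: 100% = DMSO vehicle control wells.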

| SMILES | IC50 (second compound 0.03 µM) [nM] | IC50 (second compound 0.0949 µM) [nM] | IC50 (second compound 0.3 µM) [nM] | IC50 (second compound 0.949 µM) [nM] | IC50 (second compound 3 µM) [nM] | viability, T/C [1] [%] | viability, T/C [2] [%] | viability, T/C [3] [%] | viability, T/C [4] [%] | viability, T/C [7] [%] | viability, T/C [8] [%] | viability, T/C [9] [%] | viability, T/C [10] [%] | viability, T/C [13] [%] | viability, T/C [14] [%] | viability, T/C [15] [%] | viability, T/C [16] [%] | viability, T/C [19] [%] | viability, T/C [20] [%] | viability, T/C [21] [%] | other results |
| --- | --- | --- | --- | --- | --- | --- | --- | --- | --- | --- | --- | --- | --- | --- | --- | --- | --- | --- | --- | --- | --- |
| C#Cc1c(F)ccc2cc(O)cc(-c3ncc4c(N5CC6CCC(C5)N6)nc(OCC56CCCN5CC(F)C6)nc4c3F)c12 (stereo not given) + CCN1C(C(=O)NC23CCC(C(=O)O)(CC2)CC3)C(c2cccc(Cl)c2F)C2(C(=O)Nc3cc(Cl)ccc32)C12CCCCC2 | > 10000 | > 10000 | > 10000 | > 10000 | > 10000 | 96.1 | 102 | 100 | 96.2 | 101 | 95.3 | 96.2 | 84.8 | 99 | 104 | 97.7 | 101 | 92 | 103 | 94.9 | viability, T/C [5]: 95.5%; viability, T/C [6]: 79.4%; viability, T/C [11]: 87.3%; viability, T/C [12]: 69.9%; viability, T/C [17]: 99.2%; viability, T/C [18]: 88%; viability, T/C [22]: 88.7%; viability, T/C [23]: 97.3%; viability, T/C [24]: 93%; viability, T/C [25]: 103%; viability, T/C [26]: 94%; viability, T/C [27]: 86.1%; viability, T/C [28]: 98.6%; viability, T/C [29]: 86.2%; viability, T/C [30]: 78.5% |
| C=C(F)C(=O)N1CCN(c2nc(OCC3CCCN3C)nc3c2CCN(c2cccc4cccc(Cl)c24)C3)CC1CC#N (stereo not given) + CCN1C(C(=O)NC23CCC(C(=O)O)(CC2)CC3)C(c2cccc(Cl)c2F)C2(C(=O)Nc3cc(Cl)ccc32)C12CCCCC2 | 2430 | 2640 | 2730 | 2740 | 2920 | 105 | 103 | 102 | 95.9 | 101 | 104 | 94.9 | 93.8 | 101 | 105 | 97.4 | 93.9 | 107 | 123 | 100 | viability, T/C [5]: 36.5%; viability, T/C [6]: 0.16%; viability, T/C [11]: 41.9%; viability, T/C [12]: 0.16%; viability, T/C [17]: 43.6%; viability, T/C [18]: 0.16%; viability, T/C [22]: 101%; viability, T/C [23]: 42.7%; viability, T/C [24]: 0.17%; viability, T/C [25]: 104%; viability, T/C [26]: 114%; viability, T/C [27]: 103%; viability, T/C [28]: 98.9%; viability, T/C [29]: 46.3%; viability, T/C [30]: 0.21% |
| C=CC(=O)N1CCN(c2nc(=O)n(-c3c(C)ccnc3C(C)C)c3nc(-c4c(O)cccc4F)c(F)cc23)C(C)C1 (stereo not given) + CCN1C(C(=O)NC23CCC(C(=O)O)(CC2)CC3)C(c2cccc(Cl)c2F)C2(C(=O)Nc3cc(Cl)ccc32)C12CCCCC2 | > 10000 | > 10000 | > 10000 | > 10000 | > 10000 | 94.8 | 114 | 106 | 103 | 110 | 92.6 | 98.1 | 104 | 98.4 | 121 | 106 | 112 | 94.9 | 109 | 106 | viability, T/C [5]: 114%; viability, T/C [6]: 89%; viability, T/C [11]: 111%; viability, T/C [12]: 88.5%; viability, T/C [17]: 105%; viability, T/C [18]: 98.5%; viability, T/C [22]: 120%; viability, T/C [23]: 110%; viability, T/C [24]: 84.2%; viability, T/C [25]: 109%; viability, T/C [26]: 109%; viability, T/C [27]: 106%; viability, T/C [28]: 109%; viability, T/C [29]: 109%; viability, T/C [30]: 93.2% |
| CNC(C)C(=O)NC1CN(S(=O)(=O)c2cccc(S(=O)(=O)N3CCC4CCC(C(=O)NC(c5ccccc5)c5ccccc5)N4C(=O)C(NC(=O)C(C)NC)C3)c2)CCC2CCC(C(=O)NC(c3ccccc3)c3ccccc3)N2C1=O (stereo not given) + CCN1C(C(=O)NC23CCC(C(=O)O)(CC2)CC3)C(c2cccc(Cl)c2F)C2(C(=O)Nc3cc(Cl)ccc32)C12CCCCC2 | > 1000 | > 1000 | > 1000 | > 1000 | > 1000 | 76.7 | 61.4 | 50.6 | 56.6 | 78.5 | 67.2 | 52.6 | 57.6 | 96.4 | 65.3 | 62 | 55.8 | 79.6 | 66 | 58 | viability, T/C [31]: 108%; viability, T/C [32]: 94.3%; viability, T/C [33]: 104%; viability, T/C [34]: 106%; viability, T/C [35]: 96%; viability, T/C [36]: 92.9%; viability, T/C [37]: 103%; viability, T/C [38]: 90.4%; viability, T/C [22]: 55.7%; viability, T/C [39]: 85.7%; viability, T/C [40]: 80.8%; viability, T/C [25]: 84.6%; viability, T/C [26]: 65.3%; viability, T/C [27]: 53.9%; viability, T/C [28]: 59.2% |
| COc1c(OCCCN2CCOCC2)ccc2c3n(c(=NC(=O)c4cnc(N)nc4)nc12)CCN3 + CCN1C(C(=O)NC23CCC(C(=O)O)(CC2)CC3)C(c2cccc(Cl)c2F)C2(C(=O)Nc3cc(Cl)ccc32)C12CCCCC2 | 44.2 | 38.6 | 37.4 | 49.1 | 51 | 56.9 | 28.8 | 17.4 | 11.1 | 57.5 | 25.8 | 16.1 | 9.86 | 57.2 | 26.9 | 16.3 | 10.5 | 61.8 | 30.3 | 15.6 | viability, T/C [31]: 93.9%; viability, T/C [32]: 91.4%; viability, T/C [33]: 87.3%; viability, T/C [34]: 73.5%; viability, T/C [35]: 89.3%; viability, T/C [36]: 72.3%; viability, T/C [37]: 93.6%; viability, T/C [38]: 86.5%; viability, T/C [22]: 10.4%; viability, T/C [39]: 87.2%; viability, T/C [40]: 85.3%; viability, T/C [25]: 62.6%; viability, T/C [26]: 31.2%; viability, T/C [27]: 16.4%; viability, T/C [28]: 10.9% |
